From PubChem BioAssay (NCI)
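48-hour exposure; five concentrations; linearly interpolated endpoints. GI50: concentration for 50% inhibition of growth. Definition used: TGI = concentration required for complete inhibition of growth.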

What was measured:
Experiment in all cases: NCI-60 cell line screen, 48 h
[1] = tested on: 786-0 renal
[2] = tested on: A498 renal
[3] = tested on: A549 NSCLC
[4] = tested on: ACHN renal
[5] = tested on: BT-549 breast
[6] = tested on: CAKI-1 renal
[7] = tested on: CCRF-CEM leukemia
[8] = tested on: COLO 205 colon
[9] = tested on: DU-145 prostate
[10] = tested on: EKVX NSCLC
[11] = tested on: HCC-2998 colon
[12] = tested on: HCT-116 colon
[13] = tested on: HCT-15 colon
[14] = tested on: HL-60(TB) leukemia
[15] = tested on: HOP-62 NSCLC
[16] = tested on: HOP-92 NSCLC
[17] = tested on: HS 578T breast
[18] = tested on: HT29 colon
[19] = tested on: IGROV1 ovarian
[20] = tested on: K-562 leukemia
[21] = tested on: KM12 colon
[22] = tested on: LOX IMVI melanoma
[23] = tested on: M14 melanoma
[24] = tested on: MALME-3M melanoma
[25] = tested on: MCF7 breast
[26] = tested on: MDA-MB-231 breast
[27] = tested on: MDA-MB-435
[28] = tested on: MDA-MB-468 breast
[29] = tested on: MOLT-4 leukemia
[30] = tested on: NCI-H226 lung
[31] = tested on: NCI-H23 lung
[32] = tested on: NCI-H460 lung
[33] = tested on: NCI-H522 lung
[34] = tested on: OVCAR-3 ovarian
[35] = tested on: OVCAR-4 ovarian
[36] = tested on: OVCAR-5 ovarian
[37] = tested on: OVCAR-8 ovarian
[38] = tested on: PC-3 prostate
[39] = tested on: RPMI-8226 leukemia
[40] = tested on: RXF 393 renal
[41] = tested on: SF-268 CNS
[42] = tested on: SF-295 CNS
[43] = tested on: SF-539 CNS
[44] = tested on: SK-MEL-2 melanoma
[45] = tested on: SK-MEL-28 melanoma
[46] = tested on: SK-MEL-5 melanoma
[47] = tested on: SK-OV-3 ovarian
[48] = tested on: SN12C renal
[49] = tested on: SNB-19 CNS
[50] = tested on: SNB-75 CNS
[51] = tested on: SR leukemia
[52] = tested on: SW-620 colon
[53] = tested on: T-47D breast
[54] = tested on: TK-10 renal
[55] = tested on: U251 CNS
[56] = tested on: UACC-257 melanoma
[57] = tested on: UACC-62 melanoma
[58] = tested on: UO-31 renal
[59] = tested on: NCI/ADR-RES ovarian

`COc1ccccc1[C@H]1C(C(=O)c2ccc(O)cc2)C2(N[C@@H]1c1ccccc1)C(=O)Nc1ccc(Br)cc12` (some centres not stated) was tested, and the GI50 [1] was 8.4 µM, the TGI [1] was 16.2 µM and the GI50 [2] was 7.26 µM. The TGI [2] was 15 µM, the GI50 [3] was 6.04 µM and the TGI [3] was 13.6 µM. The GI50 [4] was 7.72 µM, the TGI [4] was 15 µM and the GI50 [5] was 6.03 µM. The TGI [5] was 13.4 µM, the GI50 [6] was 2.94 µM and the TGI [6] was 10.7 µM. It also gave a GI50 [7] of 7.57 µM, a TGI [7] of 24.4 µM and a GI50 [8] of 8.67 µM. For the same molecule, the TGI [8] was 18.2 µM, the GI50 [9] was 9.39 µM and the TGI [9] was 18 µM. It also gave a GI50 [10] of 7.61 µM, a TGI [10] of 16.5 µM and a GI50 [11] of 6.55 µM. For the same molecule, the TGI [11] was 14 µM, the GI50 [12] was 7.03 µM and the TGI [12] was 15.4 µM. It also gave a GI50 [13] of 8.02 µM, a TGI [13] of 18.1 µM and a GI50 [14] of 12.2 µM. It also gave a TGI [14] of 39.3 µM, a GI50 [15] of 8.27 µM and a TGI [15] of 16.7 µM. The GI50 [16] was 6.52 µM, the TGI [16] was 14.7 µM and the GI50 [17] was 8.2 µM. It also gave a TGI [17] of 23.2 µM, a GI50 [18] of 7.91 µM and a TGI [18] of 17.6 µM. The GI50 [19] was 4.56 µM, the TGI [19] was 11.8 µM and the GI50 [20] was 10.7 µM. It also gave a TGI [20] of 43.1 µM, a GI50 [21] of 7.73 µM and a TGI [21] of 16.9 µM. The GI50 [22] was 7.63 µM, the TGI [22] was 18.8 µM and the GI50 [23] was 7.35 µM. For the same molecule, the TGI [23] was 15.4 µM, the GI50 [24] was 8.42 µM and the TGI [24] was 16.1 µM. For the same molecule, the GI50 [25] was 6.66 µM, the TGI [25] was 19.1 µM and the GI50 [26] was 6.39 µM. The TGI [26] was 13.3 µM, the GI50 [27] was 7.39 µM and the TGI [27] was 15.1 µM. The GI50 [28] was 2.22 µM, the TGI [28] was 8.66 µM and the GI50 [29] was 4.42 µM. For the same molecule, the TGI [29] was 23.2 µM, the GI50 [30] was 5.1 µM and the TGI [30] was 14.9 µM. For the same molecule, the GI50 [31] was 8.25 µM, the TGI [31] was 16.7 µM and the GI50 [32] was 6.91 µM. The TGI [32] was 15 µM, the GI50 [33] was 2.77 µM and the TGI [33] was 10.4 µM. For the same molecule, the GI50 [34] was 5.35 µM, the TGI [34] was 12.4 µM and the GI50 [35] was 7.19 µM. For the same molecule, the TGI [35] was 16.4 µM, the GI50 [36] was 7.47 µM and the TGI [36] was 14.7 µM. It also gave a GI50 [37] of 8.3 µM, a TGI [37] of 16.7 µM and a GI50 [38] of 4.08 µM. It also gave a TGI [38] of 13.9 µM, a GI50 [39] of 8.42 µM and a TGI [39] of 47.7 µM. The GI50 [40] was 5.63 µM, the TGI [40] was 13.8 µM and the GI50 [41] was 7.05 µM. For the same molecule, the TGI [41] was 17.1 µM, the GI50 [42] was 6.63 µM and the TGI [42] was 14.1 µM. It also gave a GI50 [43] of 8.07 µM, a TGI [43] of 15.4 µM and a GI50 [44] of 8.01 µM. The TGI [44] was 15.8 µM, the GI50 [45] was 8.02 µM and the TGI [45] was 15.4 µM. The GI50 [46] was 9.09 µM, the TGI [46] was 17.1 µM and the GI50 [47] was 8.08 µM. It also gave a TGI [47] of 16.3 µM, a GI50 [48] of 2.65 µM and a TGI [48] of 9.49 µM. The GI50 [49] was 7.62 µM, the TGI [49] was 14.8 µM and the GI50 [50] was 5.98 µM. It also gave a TGI [50] of 13.6 µM, a GI50 [51] of 5.57 µM and a TGI [51] of 18.4 µM. The GI50 [52] was 8.34 µM, the TGI [52] was 16.8 µM and the GI50 [53] was 6.67 µM. The TGI [53] was 16.6 µM, the GI50 [54] was 7.34 µM and the TGI [54] was 15.2 µM. For the same molecule, the GI50 [55] was 6.62 µM, the TGI [55] was 13.9 µM and the GI50 [56] was 7.81 µM. For the same molecule, the TGI [56] was 15.5 µM, the GI50 [57] was 7.15 µM and the TGI [57] was 14.2 µM. It also gave a GI50 [58] of 6.07 µM and a TGI [58] of 12.8 µM.

For `CCCCSc1nc(Nc2ccc(/C(C)=N/NC(N)=S)cc2)c(C#N)c(-c2ccc(F)cc2)n1`, the GI50 [1] was 1.69 µM, the TGI [1] was 3.88 µM and the GI50 [2] was 2.7 µM. It also gave a TGI [2] of 7.1 µM, a GI50 [3] of 2.35 µM and a TGI [3] of 7.57 µM. It also gave a GI50 [4] of 0.858 µM, a TGI [4] of 4.37 µM and a GI50 [5] of 6.6 µM. The TGI [5] was 28.1 µM, the GI50 [6] was 1.71 µM and the TGI [6] was 4.97 µM. For the same molecule, the GI50 [7] was 0.814 µM, the TGI [7] was > 100 µM and the GI50 [8] was 4.03 µM. For the same molecule, the TGI [8] was 23.1 µM, the GI50 [9] was 3.12 µM and the TGI [9] was 49.8 µM. For the same molecule, the GI50 [10] was 3.67 µM, the TGI [10] was 17.2 µM and the GI50 [11] was 3.29 µM. For the same molecule, the TGI [11] was 18.7 µM, the GI50 [13] was 1.38 µM and the TGI [13] was 16.8 µM. For the same molecule, the GI50 [14] was > 100 µM, the TGI [14] was > 100 µM and the GI50 [15] was 2.25 µM. It also gave a TGI [15] of 5.1 µM, a GI50 [16] of 1.23 µM and a TGI [16] of 4.01 µM. For the same molecule, the GI50 [17] was 1.71 µM, the TGI [17] was 8.14 µM and the GI50 [18] was 5.89 µM. The TGI [18] was > 100 µM, the GI50 [19] was 12 µM and the TGI [19] was 30.3 µM. The GI50 [20] was 4.46 µM, the TGI [20] was > 100 µM and the GI50 [21] was 15.9 µM. The TGI [21] was > 100 µM, the GI50 [22] was 1.88 µM and the TGI [22] was 10.1 µM. For the same molecule, the GI50 [23] was 3.52 µM, the TGI [23] was 19.6 µM and the GI50 [24] was 2.39 µM. It also gave a TGI [24] of 11.5 µM, a GI50 [25] of 0.893 µM and a TGI [25] of 11.4 µM. For the same molecule, the GI50 [26] was 1.03 µM, the TGI [26] was 4.28 µM and the GI50 [27] was 4.13 µM. The TGI [27] was 24.8 µM, the GI50 [28] was 2.26 µM and the TGI [28] was 8.99 µM. The GI50 [29] was 3.63 µM, the TGI [29] was > 100 µM and the GI50 [30] was 1.59 µM. For the same molecule, the TGI [30] was 5.29 µM, the GI50 [31] was 1.56 µM and the TGI [31] was 4.69 µM. The GI50 [32] was 0.578 µM, the TGI [32] was 2.25 µM and the GI50 [33] was 1.92 µM. For the same molecule, the TGI [33] was 7.05 µM, the GI50 [59] was 1.34 µM and the TGI [59] was 5.72 µM. For the same molecule, the GI50 [34] was 2.57 µM, the TGI [34] was 10.1 µM and the GI50 [35] was 1.85 µM. For the same molecule, the TGI [35] was 85.5 µM, the GI50 [36] was 12.5 µM and the TGI [36] was 50.5 µM. The GI50 [37] was 3.85 µM, the TGI [37] was 21.1 µM and the GI50 [38] was 1.42 µM. For the same molecule, the TGI [38] was 7.02 µM, the GI50 [39] was 3.4 µM and the TGI [39] was > 100 µM. It also gave a GI50 [40] of 1.97 µM, a TGI [40] of 5.49 µM and a GI50 [41] of 13.6 µM. For the same molecule, the TGI [41] was 89.3 µM, the GI50 [42] was 1.21 µM and the TGI [42] was 2.75 µM. The GI50 [43] was 1.4 µM, the TGI [43] was 4.49 µM and the GI50 [44] was 4.4 µM. For the same molecule, the TGI [44] was 20 µM, the GI50 [45] was 3.83 µM and the TGI [45] was 17.9 µM. For the same molecule, the GI50 [46] was 2.3 µM, the TGI [46] was 12.5 µM and the GI50 [47] was 3.54 µM. For the same molecule, the TGI [47] was 9.87 µM, the GI50 [48] was 11.8 µM and the TGI [48] was 57 µM. For the same molecule, the GI50 [49] was 2.51 µM, the TGI [49] was 8.31 µM and the GI50 [50] was 1.6 µM. The TGI [50] was 6.54 µM, the GI50 [51] was 8.62 µM and the TGI [51] was > 100 µM. It also gave a GI50 [52] of 2.7 µM, a TGI [52] of 42.1 µM and a GI50 [53] of 1.19 µM. For the same molecule, the TGI [53] was 18 µM, the GI50 [54] was 2.92 µM and the TGI [54] was 7.08 µM. For the same molecule, the GI50 [55] was 1.24 µM, the TGI [55] was 3.83 µM and the GI50 [56] was 15.4 µM. It also gave a TGI [56] of 61.8 µM, a GI50 [57] of 2.91 µM and a TGI [57] of 12 µM. The GI50 [58] was 0.761 µM and the TGI [58] was 3.01 µM.
